Patent US7138361B2, “Herbicidal heterocycles” (E. I. du Pont de Nemours and Company, priority 2000, dated 2006)

Tests used:
Test in all cases: Test C preemergence
Format in all cases: in vivo
Nightshade = settings: scale 0 to 100, 0 no effect, 100 complete control
Source text: (§1) Seeds of plant species selected from bermudagrass (Cynodon dactylon), Surinam grass (Brachiaria decumbens), cocklebur (Xanthium strumarium), corn (Zea mays), crabgrass (Digitaria sanguinalis), woolly cupgrass (Eriochloa villosa), giant foxtail (Setaria faberii), goosegrass (Eleusine indica), johnsongrass (Sorghum halepense), kochia (Kochia scoparia), lambsquarters (Chenopodium album), morningglory (Ipomoea hederacea), yellow nutsedge (Cyperus esculentus), pigweed (Amaranthus retroflexus), common ragweed (Ambrosia elatior), soybean (Glycine max) and velvetleaf (Abutilon theophrasti) were planted and treated preemergence with test chemicals formulated in a non-phytotoxic solvent mixture which included a surfactant.
(§2) At the same time, plants selected from these crop and weed species and also winter barley (Hordeum vulgare), blackgrass (Alopecurus myosuroides), canary grass (Phalaris minor), chickweed (Stellaria media), downy brome (Bromus tectorum), green foxtail (Setaria viridis), Italian ryegrass (Lolium multiflorum), wheat (Triticum aestivum), wild oat (Avena fatua) and windgrass (Apera spica-venti) were treated with postemergence applications of some of the test chemicals formulated in the same manner. Plants ranged in height from 2 to 18 cm (1- to 4-leaf stage) for postemergence treatments. Plant species in the flooded paddy test consisted of rice (Oryza saliva), smallflower flatsedge (Cyperus difformis), duck salad (Heteranthera limosa) and barnyardgrass (Echinochloa crus-galli) grown to the 2-leaf stage for testing. Treated plants and controls were maintained in a greenhouse for 12 to 14 days, after which time all species were compared to controls and visually evaluated. Plant response ratings, summarized in Table C, are based on a scale of 0 to 100 where 0 is no effect and 100 is complete control. A dash (-) response means no test result.

[1] = test system: Surinam grass (Brachiaria decumbens); settings: for Plant response rating, Surinam grass: scale 0 to 100, 0 no effect, 100 complete control; for Plant response rating (0 to 100), Surinam grass: visual evaluation after 12 to 14 days
Source text: as §1, §2

[2] = test system: bermudagrass (Cynodon dactylon); settings: for Plant response rating, Bermudagrass: scale 0 to 100, 0 no effect, 100 complete control; for Plant response rating (0 to 100 where 0 is no effect and 100 is complete control), Bermudagrass: visual evaluation after 12 to 14 days
Source text: as §1, §2

[3] = test system: cocklebur (Xanthium strumarium); settings: for Plant response rating, Cocklebur: scale 0 to 100, 0 no effect, 100 complete control; for Plant response rating (0 to 100), Cocklebur: visual evaluation after 12 to 14 days
Source text: as §1, §2

[4] = test system: common ragweed (Ambrosia elatior); settings: preemergence; for Plant response rating, Ragweed, Common: scale 0 to 100, 0 no effect, 100 complete control
Source text: as §1, §2

corn (Zea mays) = settings: for Plant response rating, Corn: scale 0 to 100, 0 no effect, 100 complete control; for Plant response rating (0 to 100), Corn: visual evaluation after 12 to 14 days
Source text: as §1, §2

[5] = test system: crabgrass (Digitaria sanguinalis); settings: for Plant response rating, Crabgrass: scale 0 to 100, 0 no effect, 100 complete control; for Plant response rating (0 to 100), Crabgrass: visual evaluation after 12 to 14 days
Source text: as §1, §2

[6] = test system: giant foxtail (Setaria faberii); settings: for Plant response rating, Foxtail, Giant: scale 0 to 100, 0 no effect, 100 complete control; for Plant response rating (0 to 100), Foxtail, Giant: visual evaluation after 12 to 14 days
Source text: as §1, §2

[7] = test system: goosegrass (Eleusine indica); settings: for Plant response rating, Goosegrass: scale 0 to 100, 0 no effect, 100 complete control; for Plant response rating (0 to 100), Goosegrass: visual evaluation after 12 to 14 days
Source text: as §1, §2

[8] = test system: johnsongrass (Sorghum halepense); settings: for Plant response rating, Johnsongrass: scale 0 to 100, 0 no effect, 100 complete control; for Plant response rating (0 to 100), Johnsongrass: visual evaluation after 12 to 14 days
Source text: as §1, §2

kochia (Kochia scoparia) = settings: for Plant response rating, Kochia: scale 0 to 100, 0 no effect, 100 complete control; for Plant response rating (0 to 100), Kochia: visual evaluation after 12 to 14 days
Source text: as §1, §2

[9] = test system: morningglory (Ipomoea hederacea); settings: for Plant response rating, Morningglory: scale 0 to 100, 0 no effect, 100 complete control
Source text: as §1, §2

[10] = test system: pigweed (Amaranthus retroflexus); settings: preemergence; for Plant response rating, Pigweed: scale 0 to 100, 0 no effect, 100 complete control
Source text: as §1, §2

soybean (Glycine max) = settings: preemergence; for Plant response rating, Soybean: scale 0 to 100, 0 no effect, 100 complete control
Source text: as §1, §2

[11] = test system: velvetleaf (Abutilon theophrasti); settings: preemergence; for Plant response rating, Velvetleaf: scale 0 to 100, 0 no effect, 100 complete control
Source text: as §1, §2

[12] = test system: woolly cupgrass (Eriochloa villosa); settings: for Plant response rating, Cupgrass, Woolly: scale 0 to 100, 0 no effect, 100 complete control; for Plant response rating (0 to 100), Cupgrass, Woolly: visual evaluation after 12 to 14 days
Source text: as §1, §2

[13] = test system: yellow nutsedge (Cyperus esculentus); settings: for Plant response rating, Nutsedge: scale 0 to 100, 0 no effect, 100 complete control
Source text: as §1, §2

Sunflower = settings: scale 0 to 100, 0 no effect, 100 complete control
[14] = Rate 500 g/ha, visual evaluation after 12 to 14 days
[15] = preemergence, Rate 500 g/ha, visual evaluation after 12 to 14 days

CC1(c2ccn(C3SCN(c4cccc(OC(F)(F)F)c4)C3=O)n2)CC1 (centres unmarked) [Compound 63]
Plant response rating, Nightshade (Nightshade; Rate 62 g/ha): 30
Plant response rating, Nightshade (Nightshade; Rate 125 g/ha): 60
Plant response rating, Nightshade (Nightshade; Rate 250 g/ha): 60
Plant response rating, Surinam grass ([1]; Rate 62 g/ha): 20
Plant response rating (0 to 100), Surinam grass ([1]; preemergence, Rate 250 g/ha): 70
Plant response rating (0 to 100), Surinam grass ([1]; preemergence, Rate 500 g/ha): 100
Plant response rating, Surinam grass ([1]; preemergence, Rate 125 g/ha): 20
Plant response rating, Bermudagrass ([2]; Rate 62 g/ha): 100
Plant response rating (0 to 100 where 0 is no effect and 100 is complete control), Bermudagrass ([2]; preemergence, Rate 250 g/ha): 100
Plant response rating (0 to 100 where 0 is no effect and 100 is complete control), Bermudagrass ([2]; preemergence, Rate 500 g/ha): 100
Plant response rating, Bermudagrass ([2]; preemergence, Rate 125 g/ha): 100
Plant response rating, Cocklebur ([3]; Rate 62 g/ha): 0
Plant response rating (0 to 100), Cocklebur ([3]; preemergence, Rate 250 g/ha): 30
Plant response rating (0 to 100), Cocklebur ([3]; preemergence, Rate 500 g/ha): 30
Plant response rating, Cocklebur ([3]; preemergence, Rate 125 g/ha): 0
Plant response rating (0 to 100), Ragweed, Common [4, 14]: 90
Plant response rating, Ragweed, Common ([4]; Rate 125 g/ha): 50
Plant response rating, Ragweed, Common ([4]; Rate 250 g/ha): 50
Plant response rating, Corn (corn (Zea mays); Rate 62 g/ha): 0
Plant response rating (0 to 100), Corn (corn (Zea mays); preemergence, Rate 250 g/ha): 20
Plant response rating (0 to 100), Corn (corn (Zea mays); preemergence, Rate 500 g/ha): 40
Plant response rating, Corn (corn (Zea mays); preemergence, Rate 125 g/ha): 0
Plant response rating, Crabgrass ([5]; Rate 62 g/ha): 100
Plant response rating (0 to 100), Crabgrass ([5]; preemergence, Rate 250 g/ha): 100
Plant response rating (0 to 100), Crabgrass ([5]; preemergence, Rate 500 g/ha): 100
Plant response rating, Crabgrass ([5]; preemergence, Rate 125 g/ha): 100
Plant response rating, Foxtail, Giant ([6]; Rate 62 g/ha): 20
Plant response rating (0 to 100), Foxtail, Giant ([6]; preemergence, Rate 250 g/ha): 100
Plant response rating (0 to 100), Foxtail, Giant ([6]; preemergence, Rate 500 g/ha): 100
Plant response rating, Foxtail, Giant ([6]; preemergence, Rate 125 g/ha): 90
Plant response rating, Goosegrass ([7]; Rate 62 g/ha): 100
Plant response rating (0 to 100), Goosegrass ([7]; preemergence, Rate 250 g/ha): 100
Plant response rating (0 to 100), Goosegrass ([7]; preemergence, Rate 500 g/ha): 100
Plant response rating, Goosegrass ([7]; preemergence, Rate 125 g/ha): 100
Plant response rating, Johnsongrass ([8]; Rate 62 g/ha): 0
Plant response rating (0 to 100), Johnsongrass ([8]; preemergence, Rate 250 g/ha): 100
Plant response rating (0 to 100), Johnsongrass ([8]; preemergence, Rate 500 g/ha): 100
Plant response rating, Johnsongrass ([8]; preemergence, Rate 125 g/ha): 60
Plant response rating, Kochia (kochia (Kochia scoparia); Rate 62 g/ha): 70
Plant response rating (0 to 100), Kochia (kochia (Kochia scoparia); preemergence, Rate 250 g/ha): 100
Plant response rating (0 to 100), Kochia (kochia (Kochia scoparia); preemergence, Rate 500 g/ha): 100
Plant response rating, Kochia (kochia (Kochia scoparia); preemergence, Rate 125 g/ha): 100
Plant response rating, Morningglory ([9]; Rate 62 g/ha): 0
Plant response rating (0 to 100), Morningglory [9, 15]: 40
Plant response rating, Morningglory ([9]; preemergence, Rate 125 g/ha): 20
Plant response rating, Morningglory ([9]; preemergence, Rate 250 g/ha): 30
Plant response rating (0 to 100), Pigweed [10, 14]: 100
Plant response rating, Pigweed ([10]; Rate 125 g/ha): 100
Plant response rating, Pigweed ([10]; Rate 250 g/ha): 100
Plant response rating (0 to 100), Soybean (soybean (Glycine max); [14]): 40
Plant response rating, Soybean (soybean (Glycine max); Rate 125 g/ha): 0
Plant response rating, Soybean (soybean (Glycine max); Rate 250 g/ha): 0
Plant response rating (0 to 100), Velvetleaf [11, 14]: 50
Plant response rating, Velvetleaf ([11]; Rate 125 g/ha): 0
Plant response rating, Velvetleaf ([11]; Rate 250 g/ha): 30
Plant response rating, Cupgrass, Woolly ([12]; Rate 62 g/ha): 20
Plant response rating (0 to 100), Cupgrass, Woolly ([12]; preemergence, Rate 250 g/ha): 60
Plant response rating (0 to 100), Cupgrass, Woolly ([12]; preemergence, Rate 500 g/ha): 100
Plant response rating, Cupgrass, Woolly ([12]; preemergence, Rate 125 g/ha): 60
Plant response rating, Nutsedge ([13]; Rate 62 g/ha): 0
Plant response rating (0 to 100), Nutsedge [13, 15]: 100
Plant response rating, Nutsedge ([13]; preemergence, Rate 125 g/ha): 0
Plant response rating, Nutsedge ([13]; preemergence, Rate 250 g/ha): 20
Plant response rating, Sunflower (Sunflower; Rate 125 g/ha): 0
Plant response rating, Sunflower (Sunflower; Rate 250 g/ha): 40
